According to patent publication US20250114337A1, “METHODS FOR VASCULAR REGENERATION AND WOUND TREATMENT” (THE METHODIST HOSPITAL, priority 2022, published 2025):
Entries after “also recorded” stand apart in the source; their conditions may differ. Read-outs that look alike come from different tables or passages of the source.

Columns and labels:
H3.3 deposition = experiment: H3.3-SNAP tagging, quench-chase-pulse TMR-Star labeling; type: cell-based; conditions: vs control
Description: To identify the role of O-GlcNAcylation of histone variant h3.3 chaperone protein, HIRA, on transdifferentiation. The effects of O-GlcNAcylation on proteins that may be involved in the epigenetic regulation of transdifferentiation can be assessed. Nucleosome turnover is known to be tightly interrelated with DNA accessibility, and histone variant h3.3 is a hallmark of regulatory regions in the mammalian genome and is required to establish open chromatins. HIRA is the chaperone for h3.3, it forms a complex with other subunits, including ASF1. UBN, and CABIN, and is responsible for h3.3 deposition on the chromatin. OGT interacts with and O-GlcNAcylates HIRA, both of which are critical for the formation of the HIRA-h3.3 complex and h3.3 deposition and its dependent gene activation. […] The role of HIRA in transdifferentiation with fibroblasts that have HIRA knocked down or overexpressed can be determined. […] Thereafter, the de novo deposited SNAP-h3.3 will be pulse-labeled with the TMR-Star, which is a readily detectable and quantifiable red-fluorescent substrate. […]
To test whether innate immune activation enhances the H3.3 deposition in the chromatin, the H3.3-SNAP tagging system was generated where the newly synthesized H3.3 will be detected by fluorescent TMR-Star labeling with quench-chase-pulse strategy.

UDP-GlcNAc = experiment: LC-MS-based metabolomic analysis of fibroblasts undergoing transdifferentiation; type: cell-based, human; conditions: 30 ng/ml Poly I:C with induction medium, 0, 1, 3 days
Procedure: (§1) Cellular O-GlcNAcylation is elevated during transdifferentiation. […] TLR3 activation increases DNA accessibility and facilitates transdifferentiation. Other forms of inflammatory activation also increase DNA accessibility (as with RIG1 activation). […] To determine if the increase in UDP-GlcNAc is associated with an increase in O-GlcNAcylation, cells were treated with PolyI:C or vehicle for 3 days, then the O-GlcNAcylated proteins in the nuclear (N), cytoplasmic (C), or whole-cell (W) lysates were enzymatically labeled with azido-modified galactose (GalNAz), which were further detected by click-it chemistry using a biotinylated alkyne and Western.
To profile the global metabolic changes during transdifferentiation, untargeted metabolomics with BJ human fibroblast cells undergoing transdifferentiation protocol was performed and treated with 30 ng/ml Poly I:C with the induction medium for 0, 1, and 3 days. Over 100 metabolites were identified from the LC-MS-based metabolomic analysis. […] UDP-GlcNAc is the substrate for O-GlcNAcylation and is the end-product of the hexosamine biosynthesis pathway (HBP).

accessible chromatin = experiment: ATAC seq chromatin accessibility in fibroblasts; type: cell-based
Description: Chromatin accessibility mapping is a powerful approach to identify sites of open chromatin (i.e. to infer sites of active transcription). In ATAC-seq, a Tn5 transposase inserts sequencing adapters into accessible DNA (‘tagmentation’). […] In the right panel, exposure of the fibroblasts to polyIC increases the average length (KB) of open chromatin.
Identify the role of O-GlcNAcylation in DNA accessibility. […] However, it is unknown if this occurs during transdifferentiation of fibroblasts to iECs. […] To test if O-GlcNAcylation controls this process.

MEFs = conditions: Chanda et al. 2019; cited from earlier work
HIRA-H3.3 complex = experiment: immunoprecipitation using HIRA antibody; type: cell-based; conditions: after Poly I:C treatment
Description: The histone variant h3.3 is a replacement for its canonical form of h3.1 and h3.2 in the nucleosome. Its deposition is usually associated with transcription activation and enhanced DNA accessibility. The complex that is responsible for h3.3 deposition is called HIRA complex which consists of HIRA. UBN, and cabin as the histone chaperone proteins. The HIRA O-GlcNAcylation is known to be critical for its function in H3.3 deposition. During the vascular recovery in the WT mice, the level of HIRA complex subunits, including ASFIA. HIRA. UBN, as well as the H3.3 deposition are increased (FIG. 22A). The HIRA-H3.3 pathway in the fibroblast progeny cells is activated, especially in the limbs recovering from ischemia 3- and 7-days post-surgery compared with the non-YFP+ cells (FIG. 22B). […] An in vitro system to test whether the HIRA-H3.3 pathway is activated during transdifferentiation was used.

O-GlcNAcylated proteins = experiment: Click-it O-GlcNAc enzymatic labeling and detection assay; type: cell-based; conditions: 3 days vs vehicle, nuclear, cytoplasmic, whole-cell lysates
Procedure: as §1
To determine if the increase in UDP-GlcNAc is associated with an increase in O-GlcNAcylation, cells were treated with Poly I:C or vehicle for 3 days, then the O-GlcNAcylated proteins in the nuclear (N), cytoplasmic (C), or whole-cell (W) lysates were enzymatically labeled with azido-modified galactose (GalNAz), which were further detected by click-it chemistry using a biotinylated alkyne and Western.

BJ fibroblasts [1] = conditions: PolyI:C alone, without endothelial growth factors; cited from earlier work
[2] = tested on: ischemic hindlimb mice model; experiment: hindlimb ischemia recovery in WT C57BL/6 mice, laser doppler imaging; type: in vivo, mouse; conditions: TMG 10 mg/kg 0, 1, 2 days post-surgery; older mice (around 20 weeks)
Procedure: O-GlcNAcylation manipulations regulated recovery from tissue ischemia. To determine if the change in O-GlcNAcylation can modulate limb ischemia recovery, and contributes to vascular recovery, WT C57BL/6 mice were treated with the O-GlcNAcylation inhibitor, OSMI4, or O-GlcNAcylation enhancer, TMG 0, 1, 2 days post-surgery. Age is an important factor that determines recovery, and younger mice are known to have a more robust angiogenic response as compared with older mice. Accordingly, younger mice (between 8 to 12 weeks) were used to assess the impairment of angiogenesis by OSMI (which reduces O-GlcNAcylation). Older mice (around 20 weeks) were used to assess the enhancement of angiogenesis by TMG (which increases O-GlcNAcylation). […] It will be determined whether this beneficial effect is mediated by increased DNA accessibility and enhanced transdifferentiation.
To determine if O-GlcNAcylation manipulations can modulate the overall effect of vascular recovery from limb ischemia. WT C57BL/6 mice were treated with the O-GlcNAcylation inhibitor. OSMI4 (10 mg/kg), or O-GlcNAcylation enhancer. TMG (10 mg/kg) 0, 1, 2 days post-surgery (FIG. 19A).

ischemic hindlimb model = ischemic hindlimb model in fibroblast lineage tracing Fsp1-Cre: R26R-EYFP mice; type: in vivo, mouse; conditions: ischemic hindlimb
Procedure: Using established transdifferentiation protocol and metabolomics profiling to assess the global metabolic changes during transdifferentiation. […] To determine the role of this metabolite in transdifferentiation, the effect of Thiamet G was assessed, an inhibitor of OGA, which enhances O-GlcNAcylation. Thiamet G increased transdifferentiation efficiency in vitro. In a fibroblast lineage tracing mice, Fsp1-Cre: R26R-EYFP mice, Thiamet G increased tissue O-glycnacylation, increased capillary density and limb perfusion, and increased the number of fibroblasts transdifferentiating into endothelial cells (i.e. FSP+CD31+ cell) in an ischemic hindlimb model.
Angiogenic transdifferentiation in limb ischemia. A fibroblast lineage tracing mouse model (Fsp1-Cre: R26R-EYFP) was used to detect transdifferentiation in vivo in a murine model of limb ischemia (Meng, S., et al., Circulation, 2020. 142 (17): p. 1647-1662). […] This population is abolished when the mice are treated with anti-inflammatory drugs, such as dexamethasone. Intriguingly, the disappearance of these cells is associated with a reduction in perfusion recovery and worsening clinical scores. Similar results are achieved when inflammatory signaling is impaired, as in Fsp1-Cre: Rela flox/flox mice. In these animals, NFκB signaling is blocked in the Fsp1+fibroblasts, associated with a dramatic reduction in transdifferentiated fibroblasts (i.e. YFP+CD144+ cells), and impaired perfusion (Meng. S., et al., Circulation, 2020. 142 (17): p. 1647-1662). […] Cluster 8 produced angiogenic cytokines, whereas Cluster 5 expressed genes associated with EC identity (i.e CD144). But only Cluster 5 could generate EC-like networks in Matrigel whereas other fibroblasts, including Cluster 8 fibroblasts, formed nodal structures typical of fibroblasts in Matrigel. The data support the idea that transdifferentiation may occur in vivo with tissue ischemia, and is dependent on inflammatory signaling. This model can be used to study the contribution of O-GlcNAcylation in transdifferentiation and limb ischemia recovery in vivo. A similar lineage tracing approach can be used with tamoxifen-inducible Col1A2-Cre/ERT: R26R-tdTomato mouse strain to study the contribution of O-GlcNAcylation in transdifferentiation and limb ischemia recovery in vivo.
To determine if O-GlcNAcylation enhances revascularization through transdifferentiation, fibroblasts lineage tracing Fsp1-Cre: R26R-EYFP mice strain were utilized where it was previously observed the in situ transdifferentiation phenomenon (FIG. 20A). In this model, all the fibroblasts expressing Fsp1 (fibroblast-specific protein1) are marked with YFP. With this model, a significant increase in the FSP-expressing cell progeny in the ischemic limb was identified compared with the sham-operated limb 3 days after the femoral artery ligation was perform (FIG. 20A) and compare the YFP+ cells over the different time points (FIG. 20A). The percentage of the YFP+CD31+CD11b-cell population which is considered the transdifferentiation population was analyzed further. […] To determine the role of the O-GlcNAcylation on the transdifferentiation, the Fsp1-Cre: R26R-EYFP mice that are undergoing vascular recovery with OSMI were treated, and the transdifferentiation population in the limb muscle tissue 7 days post-surgery was analyzed.

BJ fibroblasts [3] = experiment: in vitro transdifferentiation of fibroblasts to induced endothelial cells (iECs); type: cell-based, human; conditions: fibroblasts exposed during transdifferentiation protocol
Description: Innate immune activation is required for transdifferentiation. […] 131 (3): p. 300-9). iECs generated from this protocol manifest high fidelity for endothelial lineage. They incorporate acetylated LDL (FIG. 2B), form tubular networks (FIG. 2C), have similar transcriptomes as genuine endothelial cells, and increase capillary density and perfusion when injected into the ischemic hindlimb of the mouse (FIG. 2D) (Sayed, N., et al., Circulation, 2015. 131 (3): p. 300-9). This protocol can be utilized to study the role of O-GlcNAcylation in transdifferentiation in vitro.
O-GlcNAcylation is required for in vitro transdifferentiation. To define if the elevation of O-GlcNAcylation is required for transdifferentiation, fibroblasts were exposed to Thiamet G (TMG) (an OGA inhibitor that enhances O-GlcNAcylation) or DON (an inhibitor for GFAT that acts upstream in the hexosamine biosynthesis pathway and reduces O-GlcNAcylation). The number of iECs generated during transdifferentiation is increased when fibroblasts are exposed to TMG and decreased when exposed to DON (FIG. 5A). […] The role of O-GlcNAcylation of specific epigenetic regulars e.g., HIRA during transdifferentiation can also be addressed.
To define if the elevation of O-GlcNAcylation is required for transdifferentiation, inhibitors of O-GlcNAcylation including OSMI (an inhibitor for OGT) and DON (an inhibitor for GFAT that acts upstream in the hexosamine biosynthesis pathway and reduces O-GlcNAcylation) or an activator of O-GlcNAcylation. Thiamet G (TMG) (an OGA inhibitor that enhances O-GlcNAcylation), were delivered to BJ fibroblasts undergoing transdifferentiation. The number of CD31 expressing iECs generated during transdifferentiation decreases when exposed to OSMI or DON and increases when fibroblasts are exposed to TMG (FIG. 17B). Then OGT or OGA were knocked down using shRNA in the BJ fibroblasts (FIG. 17C) and performed transdifferentiation protocol in vitro.

Molecule | H3.3 deposition (H3.3 deposition) | UDP-GlcNAc level (UDP-GlcNAc) | UDP-GlcNAc level (UDP-GlcNAc; listed as Poly I:C) | chromatin accessibility (open chromatin around TSS) (accessible chromatin) | chromatin accessibility (open chromatin around TSS) (accessible chromatin; listed as polyIC) | DNA accessibility (MEFs) | HIRA interaction with UBN and H3.3 (HIRA-H3.3 complex) | O-GlcNAcylation (O-GlcNAcylated proteins) | O-GlcNAcylation (O-GlcNAcylated proteins; listed as Poly I:C) | transdifferentiation of fibroblasts to endothelial cells (BJ fibroblasts [1]) | recovery of blood flow post femoral artery ligation (revascularization) [2] | capillary density (ischemic hindlimb model) | limb perfusion (ischemic hindlimb model) | number of fibroblasts transdifferentiating into endothelial cells (FSP+CD31+ cell) (ischemic hindlimb model) | tissue O-glycnacylation (ischemic hindlimb model) | iEC yield (number of CD31 expressing iECs generated during transdifferentiation) (BJ fibroblasts [3]) | iEC yield (number of CD31 expressing iECs generated during transdifferentiation) (BJ fibroblasts [3]; listed as Thiamet G)
Polyinosinic:polycytidylic acid [PolyI:C] | enhances | highly elevated; also recorded: up-regulated | consistently increases | more accessible chromatin regions | increases | enhances | enhanced | elevation primarily occurs in nuclear proteins; also recorded: augmentation | elevation | does not occur |  |  |  |  |  |  | 
CCNC1=NC2C(OC(CO)C(O)C2O)S1 (stereo not drawn) [TMG, 2-(ethylamino)-5-(hydroxymethyl)-5,6,7,7a-tetrahydro-3aH-pyrano[3,2-d][1,3]thiazole-6,7-diol] |  |  |  |  |  |  |  |  |  |  | enhanced recovery; also recorded: enhances | increased | increased | increased | increased | increases | increased
[N-]=[N+]=CC(=O)CC[C@H](N)C(=O)O [DON] |  |  |  |  |  |  |  |  |  |  |  |  |  |  |  | decreases; also recorded: impair | 
